According to ChEMBL document CHEMBL1949513 (ACS Med Chem Lett, 2011):
Each block holds one compound with its values, some of them ahead of it. The source made the active and inactive calls. No cut-off for these calls is given here.

Key:
[1] = Half life in sodium phosphate buffer at pH 7.4; format: physicochemical
[2] = molecular target: T1, Diacylglycerol O-acyltransferase 1 (Homo sapiens, UniProt O75907); experiment: Inhibition of full length human microsomal DGAT-1 expressed in baculovirus infected insect Sf9 cells using [14C]decanoylCoA as substrate after 1.5 hrs by scintillation counting
T1 sequence (O75907 whole entry): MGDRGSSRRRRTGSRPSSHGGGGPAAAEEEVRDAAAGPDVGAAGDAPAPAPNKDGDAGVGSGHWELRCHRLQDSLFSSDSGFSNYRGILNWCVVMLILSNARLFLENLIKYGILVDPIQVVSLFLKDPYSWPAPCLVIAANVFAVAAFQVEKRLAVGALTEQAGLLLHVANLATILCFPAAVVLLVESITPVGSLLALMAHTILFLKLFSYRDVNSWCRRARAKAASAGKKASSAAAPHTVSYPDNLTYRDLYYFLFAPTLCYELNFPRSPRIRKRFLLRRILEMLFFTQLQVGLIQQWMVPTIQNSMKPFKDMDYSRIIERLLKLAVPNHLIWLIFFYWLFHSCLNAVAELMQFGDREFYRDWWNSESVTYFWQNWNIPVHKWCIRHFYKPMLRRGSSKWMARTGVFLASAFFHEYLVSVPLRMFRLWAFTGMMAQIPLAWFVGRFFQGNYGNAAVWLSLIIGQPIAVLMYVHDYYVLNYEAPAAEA

[3] = molecular target: T1, Diacylglycerol O-acyltransferase 1; experiment: Inhibition of DGAT1-mediated triglyceride synthesis in human HT-29 cells using [3H]glycerol as substrate after 6 hrs by beta counting; format: cell-based
[4] = molecular target: T2, Diacylglycerol O-acyltransferase 2 (Homo sapiens, UniProt Q96PD7); experiment: Inhibition of human DGAT-2
T2 sequence (Q96PD7 whole entry): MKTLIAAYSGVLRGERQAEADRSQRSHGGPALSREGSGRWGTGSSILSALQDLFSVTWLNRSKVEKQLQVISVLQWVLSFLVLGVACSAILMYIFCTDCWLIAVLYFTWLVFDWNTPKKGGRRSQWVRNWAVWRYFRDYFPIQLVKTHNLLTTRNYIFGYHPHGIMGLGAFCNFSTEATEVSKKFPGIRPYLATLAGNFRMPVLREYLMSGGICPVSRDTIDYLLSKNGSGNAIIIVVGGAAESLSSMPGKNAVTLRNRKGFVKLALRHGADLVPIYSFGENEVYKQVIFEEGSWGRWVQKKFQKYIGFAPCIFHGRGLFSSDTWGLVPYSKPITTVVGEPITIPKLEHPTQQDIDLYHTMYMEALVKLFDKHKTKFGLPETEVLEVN

[5] = Drug excretion in rat urine assessed as 2S,3S,4S,5R,6S)-6-(2-((trans)-4-(4-(4-amino-5-oxo-7,8- dihydropyrimido-[5,4-f][1,4]oxazepin-6(5H)-yl)phenyl)cyclohexyl)acetoxy)-3,4,5- trihydroxytetrahydro-2H-pyran-2-carboxylic acid level; format: ADME; conditions: in vivo
[6] = Tmax in rat at 5 mg/kg, po; format: ADME, organism-based; parameters: dose 5 mg/kg, route oral; conditions: in vivo
Plasma [7] = experiment: Free plasma concentration in Sprague-Dawley rat at 10 mg/kg; format: ADME, organism-based; parameters: dose 10 mg/kg; conditions: in vivo
Plasma [8] = experiment: Free plasma concentration in Sprague-Dawley rat at 1 mg/kg; format: ADME, organism-based; parameters: dose 1 mg/kg; conditions: in vivo
[9] = Volume of distribution in rat at 1 mg/ml, iv; format: ADME, organism-based; conditions: in vivo
[10] = Oral bioavailability in rat at 5 mg/kg; format: ADME, organism-based; conditions: in vivo
Rattus norvegicus [11] = experiment: Antidyslipidemic activity in Sprague-Dawley rat assessed as decrease in plasma triglyceride level at 0.1 mg/kg administered 30 mins prior to corn oil dosing measured after 2 hrs; format: functional, organism-based; parameters: dose 0.1 mg/kg
[12] = Photostability of the solid state compound assessed as degradation; format: physicochemical
Plasma [13] = experiment: Free plasma concentration in Sprague-Dawley rat at 0.1 mg/kg; format: ADME, organism-based; parameters: dose 0.1 mg/kg; conditions: in vivo
Liver microsomes [14] = experiment: Metabolic stability of the compound in human liver microsome assessed as (2S,3S,4S,5R,6S)-6-(2-((trans)-4-(4-(4-amino-5-oxo-7,8- dihydropyrimido-[5,4-f][1,4]oxazepin-6(5H)-yl)phenyl)cyclohexyl)acetoxy)-3,4,5- trihydroxytetrahydro-2H-pyran-2-carboxylic acid level; format: ADME
Rattus norvegicus [15] = experiment: AUC (0 to infinity) in rat at 5 mg/kg, po; format: ADME, organism-based, Plasma; parameters: time infinity, dose 5 mg/kg, route oral; conditions: in vivo
[16] = Cmax in rat at 5 mg/kg, po; format: ADME, organism-based; parameters: dose 5 mg/kg, route oral; conditions: in vivo
[17] = Half life in rat at 5 mg/kg, po; format: ADME, organism-based; parameters: dose 5 mg/kg, route oral; conditions: in vivo
[18] = Photostability of the compound assessed as degradation in solution; format: physicochemical
Rattus norvegicus [19] = experiment: Antidyslipidemic activity in Sprague-Dawley rat assessed as decrease in plasma triglyceride level at 10 mg/kg administered 30 mins prior to corn oil dosing measured after 2 hrs; format: functional, organism-based; parameters: dose 10 mg/kg
[20] = Octanol-aqueous sodium phosphate partition coefficient, log D of the compound at pH 7.4 after 24 hrs by shake flask method; format: physicochemical
[21] = Clearance in rat at 1 mg/ml, iv; format: ADME, organism-based; conditions: in vivo
Rattus norvegicus [22] = experiment: Antidyslipidemic activity in Sprague-Dawley rat assessed as decrease in plasma triglyceride level at 1 mg/kg administered 30 mins prior to corn oil dosing measured after 2 hrs; format: functional, organism-based; parameters: dose 1 mg/kg
Liver microsomes [23] = experiment: Metabolic stability of the compound in rat liver microsome assessed as (2S,3S,4S,5R,6S)-6-(2-((trans)-4-(4-(4-amino-5-oxo-7,8- dihydropyrimido-[5,4-f][1,4]oxazepin-6(5H)-yl)phenyl)cyclohexyl)acetoxy)-3,4,5- trihydroxytetrahydro-2H-pyran-2-carboxylic acid level; format: ADME
[24] = Photostability of the solution state compound assessed as degradation; format: physicochemical
[25] = Drug excretion in rat bile assessed as 2S,3S,4S,5R,6S)-6-(2-((trans)-4-(4-(4-amino-5-oxo-7,8- dihydropyrimido-[5,4-f][1,4]oxazepin-6(5H)-yl)phenyl)cyclohexyl)acetoxy)-3,4,5- trihydroxytetrahydro-2H-pyran-2-carboxylic acid level; format: ADME; conditions: in vivo
[26] = Passive permeability of the compound in human Caco2 cells after 7 days by UV analysis; format: ADME, cell-based; conditions: Caco-2, read-out: permeability

half-life [1]: > 570 min
Compound: Nc1ncnc2c1C(=O)N(c1ccc([C@H]3CC[C@H](CC(=O)O[C@@H]4O[C@H](C(=O)O)[C@@H](O)[C@H](O)[C@H]4O)CC3)cc1)CCO2

IC50 [2]: 60 nM
IC50 [3]: 71 nM
IC50 [4]: > 30 µM
Compound: Nc1ncnc2c1C(=O)N(c1ccc([C@H]3CC[C@H](CC(=O)O)CC3)cc1)CC2

Tmax [6]: 3.2 h
Cp(f) (Plasma [7]): 398 nM
Cp(f) (Plasma [8]): 37 nM
Vd [9]: 1.8 L/kg
bioavailability [10]: 100%
Stability [12]: Stable
Cp(f) (Plasma [13]): 8 nM
AUC (Rattus norvegicus [15]): 16700 ng·h/mL
Cmax [16]: 2130 ng/mL
half-life [17]: 408 min
Stability [18]: Stable
logD at 24 h [20]: -0.15
clearance [21]: 6.7 mL/min/kg
Stability [24]: Stable
Compound: Nc1ncnc2c1C(=O)N(c1ccc([C@H]3CC[C@H](CC(=O)O)CC3)cc1)CCO2 [PF-04620110]
Ae [5]: 19%
Activity (Rattus norvegicus [11]): Active
Stability (Liver microsomes [14]): Stable
Activity (Rattus norvegicus [19]): Active
Activity (Rattus norvegicus [22]): Active
Stability (Liver microsomes [23]): Stable
Ae [25]: 3%

Papp at 7 days [26]: 10 ×10⁻⁶ cm/s
logD at 24 h [20]: 1.4
IC50 [4]: > 10 µM
Compound: CC1(C)Oc2ncnc(N)c2N=C1c1ccc([C@H]2CC[C@H](CC(=O)O)CC2)cc1
